Assay results as given in patent US12139508B2, “Steroid derivative regulators, method for preparing the same, and uses thereof” (JIANGSU HANSOH PHARMACEUTICAL GROUP CO., LTD., priority 2018, dated 2024).
pIC50: −log10 of the molar value.

Legend:
GABA-A receptor = experiment: 35S-TBPS binding assay (GABAA receptor binding ability test); design: species or system Sprague-Dawley rat; conditions: rat cerebral cortex cell membrane, 5 μM GABA, 2 nM 35S-TBPS; read-out: 35S-TBPS bindng test: IC50 on inhibiting the TBPS binding activity
In short: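 Rat (male Sprague-Dawley) cortical membranes in PBS were preincubated 5 min at 25° C with compound (from 1 μM, 3-fold, 8 points, 1% DMSO), then 5 μM GABA 5 min, then 2 nM ^35S-TBPS for 20 h at 4° C. Filter-bound counts gave % inhibition against DMSO and 10 μM P026-2 controls; IC50 by 4-parameter fit.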

[1] = tested on: PTZ-induced epilepsy model in CD-1 mice; experiment: In vivo pharmacodynamic test in the PTZ-induced epilepsy model in mice; conditions: dose 3 mpk p.o., PTZ 120 mg/kg s.c., 30 min observation
Experimental: The PTZ-induced epilepsy model in CD-1 mice was established, and the antiepileptic effect of the compounds of Example 3, Example 60, Example 61 and Example 74 was evaluated using this model.
50 male CD-1 mice were purchased from Beijing Vital River Laboratory Animal Technology Co. Ltd. The test animals were adapted at the animal room in the third building of Shanghai ChemPartner Co., Ltd for 7 days before the test. The average body weight of the animals on the test day was 32.2±0.2 grams. Feeding environment: 5 animals/cage, room temperature 23±2° C., 12/12 hours of light and dark cycle, free acess to food and water.
4.2.1 Test Equipments • 1 ml sterile disposable syringe with needle (purchased from Zhejiang Kangdelai Medical Devices Co., Ltd.) • Pipette: Eppendorf Research Plus (100-1000 L) • Vortex mixer: Kylin-Bell Vortex 5 • Ultrasonic instrument: JL-360 ultrasonic cleaner • Balance: METTLER TOLEDO™ XS204 precision balance (note: METTLER TOLEDO™ is a kind of balance used in labs and industry) • Balance: METTLER TOLEDO™ XS6002S electronic balance (note: METTLER TOLEDO™ is a kind of balance used in labs and industry) • Plexiglass box: 25 cm length*15 cm width*15 cm height with one opaque side wall, custom made by Suzhou Fengshi Laboratory Animal Equipment Co., Ltd • 3-channel timer: Oregon/Model NO.WB-388. 4.2.2 Test Animal Grouping • 1) Vehicle/PTZ: 0.5% CMC-Na+1% Tween-80 (10 ml/kg, p.o.), administered 0.5 hr before the PTZ administration; PTZ ([…], s.c.), administered before the test; • 2) 3 mg/kg of the compounds of Examples/PTZ: the compounds of Example 3, Example 60, Example 61 and Example 74 (3 mg/kg, 10 ml/kg, p.o.), administered 0.5 hr before the PTZ administration; PTZ ([…], s.c.), administered before the test. 4.3 Experimental Procedures 4.3.1 Solvent Formulation 1) 0.5% CMC-Na+1% Tween-80 (Administration Volume: 10 mL/Kg):
4.4 Adaptation to the Environment
The mice were randomly grouped, marked and weighed; 10 mice per group. The test compound was administered orally at an administration volume of 10 mL/kg 30-60 minutes before the PTZ administration.
PTZ (120 mg/kg) was administrated subcutaneously before the test observation, and this time point was recorded as the observation start point; after the administration of PTZ, the animal was immediately placed in the observation box and observed for 30 minutes, and the followings were recorded: a) the incubation period of the first clonic seizure, b) the incubation period of the first generalized tonic seizure, c) the number of clonic seizures, d) the number of generalized tonic seizures, e) the time when the animal died.
All measurement data were expressed as Mean±SEM, and analysed with Prism 6.0 statistical software.

In the case of `C[C@@]1(O)CC[C@H]2[C@H](CC[C@@H]3[C@@H]2CC[C@@]2(C)[C@H]3[C@@H]3C[C@@H]3[C@@H]2C(=O)Cn2cc(C#N)cn2)C1` [Example 2, 1-(2-((2R,4aS,4bR,6aS,7S,7aS,8aR,8bR,8cR,10aR)-2-hydroxy-2,6a-dimethyloctadecahydrocyclopropa[4,5]cyclopenta[1,2-a]phenanthren-7-yl)-2-oxoethyl)-1H-pyrazole-4-carbonitrile], the pIC50 (GABA-A receptor) was 7.61.

In the case of `C[C@@]1(O)CC[C@H]2[C@H](CC[C@@H]3[C@@H]2CC[C@@]2(C)[C@H]3[C@@H]3C[C@@H]3[C@@H]2C(=O)Cn2ccc(C#N)n2)C1` [Example 3, 1-(2-((2R,4aS,4bR,6aS,7S,7aS,8aR,8bR,8cR,10aR)-2-hydroxy-2,6a-dimethyloctadecahydrocyclopropa[4,5]cyclopenta[1,2-a]phenanthren-7-yl)-2-oxoethyl)-1H-pyrazole-3-carbonitrile], the pIC50 (GABA-A receptor) was 7.83, the “Incubation period of the clonic seizure, Mean ± SEM” value [1] was 902.9 ± 200.8 s and the “Incubation period of the generalized tonic seizure, Mean” value [1] was 1736.0 ± 63.2 s. For the same compound, the Mortality rate [1] was 10%, the “Number of clonic seizures, Mean” value [1] was 1.3 ± 0.3 and the “Number of generalized tonic seizures, Mean” value [1] was 0.1 ± 0.1. For the same compound, the “Time when the animal died, Mean” value [1] was 1739.8 ± 60.2 s.

With `C[C@@]1(O)CC[C@H]2[C@H](CC[C@@H]3[C@@H]2CC[C@@]2(C)[C@H]3[C@@H]3C[C@@H]3[C@@H]2C(=O)Cn2cc(C(F)(F)F)cn2)C1` [Example 5, 1-((2R,4aS,4bR,6aS,7S,7aS,8aR,8bR,8cR,10aR)-2-Hydroxy-2,6a-dimethyloctadecahydrocyclopropa[4,5]cyclopenta[1,2-a]phenanthren-7-yl)-2-(4-(trifluoromethyl)-1H-pyrazol-1-yl)ethan-1-one] the pIC50 (GABA-A receptor) was 7.87.

Compound `C[C@@H]1C[C@H](C(=O)Cn2cc(C#N)cn2)[C@@]2(C)CC[C@H]3[C@@H](CC[C@@H]4C[C@](C)(O)CC[C@@H]43)[C@H]12` [Example 13, 1-(2-((3R,5R,8R,9R,10S,13S,14S,15R)-3-Hydroxy-3,13,15-trimethylhexadecahydro-1H-cyclopenta[a]phenanthren-17-yl)-2-oxoethyl)-1H-pyrazole-4-carbonitrile] has a pIC50 (GABA-A receptor) of 8.34.

In the case of `C[C@@H]1C[C@H](C(=O)Cn2ccc(C#N)n2)[C@@]2(C)CC[C@H]3[C@@H](CC[C@@H]4C[C@](C)(O)CC[C@@H]43)[C@H]12` [Example 60, 1-(2-((3R,5R,8R,9R,10S,13S,14S,15R,17S)-3-Hydroxy-3,13,15-trimethylhexadecahydro-1H-cyclopenta[a]phenanthren-17-yl)-2-oxoethyl)-1H-pyrazole-3-carbonitrile], the pIC50 (GABA-A receptor) was 8.09, the “Incubation period of the clonic seizure, Mean ± SEM” value [1] was 1308.1 ± 170.1 s and the “Incubation period of the generalized tonic seizure, Mean” value [1] was 1800.0 ± 0.0 s. The Mortality rate [1] was 0%, the “Number of clonic seizures, Mean” value [1] was 0.5 ± 0.2 and the “Number of generalized tonic seizures, Mean” value [1] was 0.0 ± 0.0. The “Time when the animal died, Mean” value [1] was 1800.0 ± 0.0 s.

Compound `C[C@@]1(O)CC[C@H]2[C@H](CC[C@@H]3[C@@H]2CC[C@]2(C)C(C(=O)Cn4cc(C#N)cn4)C[C@@H](C4CC4)[C@@H]32)C1` (stereo partly drawn) [Example 71, 1-(2-((3R,5R,8R,9R,10S,13S,14S,15S)-15-Cyclopropyl-3-hydroxy-3,13-dimethylhexadecahydro-1H-cyclopenta[a]phenanthren-17-yl)-2-oxoethyl)-1H-pyrazole-4-carbonitrile] has a pIC50 (GABA-A receptor) of 8.12.

For `CC[C@@H]1C[C@H](C(=O)Cn2ccc(C#N)n2)[C@@]2(C)CC[C@H]3[C@@H](CC[C@@H]4C[C@](C)(O)CC[C@@H]43)[C@H]12` [Example 137, 1-(2-((3R,5R,8R,9R,10S,13S,14S,15R,17S)-15-Ethyl-3-hydroxy-3,13-dimethylhexadecahydro-1H-cyclopenta[a]phenanthren-17-yl)-2-oxoethyl)-1H-pyrazole-3-carbonitrile], the pIC50 (GABA-A receptor) was 7.79.

Work on `C[C@@]1(O)CC[C@H]2[C@H](CC[C@@H]3[C@@H]2CC[C@@]2(C)[C@H]3[C@H](C3CC3)C[C@@H]2C(=O)Cn2ccnn2)C1` [Example 145, 1-((3R,5R,8R,9R,10S,13S,14S,15S,17S)-15-Cyclopropyl-3-hydroxy-3,13-dimethylhexadecahydro-1H-cyclopenta[a]phenanthren-17-yl)-2-(1H-1,2,3-triazol-1-yl)ethan-1-one] yielded a pIC50 (GABA-A receptor) of 7.77.

`C[C@@]1(O)CC[C@H]2[C@H](CC[C@@H]3[C@@H]2CC[C@@]2(C)[C@H]3[C@H](C3CC3)C[C@@H]2C(=O)Cn2ncnn2)C1` [Example 146, 1-((3R,5R,8R,9R,10S,13S,14S,15S,17S)-15-Cyclopropyl-3-hydroxy-3,13-dimethylhexadecahydro-1H-cyclopenta[a]phenanthren-17-yl)-2-(2H-tetrazol-2-yl)ethan-1-one] showed a pIC50 (GABA-A receptor) of 7.67.
